This note sets out measurements from patent US9321809B2, “Macrocyclic compounds for suppressing replication of hepatitis C virus” (Ginkgo Pharma Co., Ltd., priority 2012, dated 2016).

pEC50: −log10 of the molar value.

For the experiment, the system named is HCV replicon-containing huh-7 cells (replicon 1b). Put plainly: HCV Replicon Assay (luciferase readout). The class given is cell-based. The note with it: Hepatitis C virus; HCV replicon 1b in huh-7 cells, 48 h incubation, 1% DMSO, luciferase signal; read-out: EC50 (EC 50 on replicon 1b). The procedure: Compounds of formuala (I) are tested for the ability to inhibit viral replication of the Hepatitis C viruses by the following in vitro assays.
DMEM (Life Technologies #41965-039) was supplemented with 10% FBS, 2 mM L-glutamine (Life Technologies #25030-024), penicillin (100 units/ml)/streptomycin (100 micrograms/ml) (Life Technologies #15140-114), 1× non-essential amino acids (Life Technologies #11140-035).
Complete media was prepared by mixing FBS, DMEM media with Geneticin (G418). The compete media was preincubated at 37° C. in a CO2 incubator. Then, HCV replicon-containing huh-7 cells (V. Lohmann et. al. Science, 285, (1999)110-113) was taken out from 37° C. incubator. The residual medium was absorbed, and the cells were washed with PBS. After washing fluid was removed, 1 ml 0.25% trypsin/0.02% EDTA solution. The cells were washed by the above trypsin/EDTA solution to make sure that each cell was cleaned. After the trypsin/EDTA solution was absorbed, the mixture was incubated at 37° C. in a CO2 incubator for 3-5 minutes. Morphological changes were observed by inverted microscope, till the cells were detached from the wall of container completely.
3 ml of complete media was added to make the cells to suspend. The cells are counted with hematometer. Appropriate volumes of the complete media was added to adjust the cell density to 100,000/ml. Cells were plated with 100 μl of suspension at 10,000/well of 96 well plate. Plates were placed into 37° C. 5% CO2 incubator for 24 h.
Preparation of Drug Solution:
Drugs were diluted under aseptic conditions.
Stock solutions may be prepared before the assay, which means that the test compounds are dissolved in 100% DMSO to afford a final concentration of 2 mM. Before the 96 well culture was completed, the stock solution was diluted with culter media to 100 fold of the final concentration (100× solution).
96-well plates were taken out from 37° C. CO2 incubator and morphological changes were observed by inverted microscope. In a ventilator, 1 μl of 100× drug solution was added to wells of 96 well plate until the final concentration of DMSO in the mixture is 1%. The plates were incubated at 37° C. in a CO2 environment for 48 h. 30 μl of Stead-G1® Luciferase Assay System (bought from Promega) was added to each well of 96 well plates and each plate is shaken in a plate shaker for 5 minutes to ensure cells cleavaged completely. The fluorescence signal was quantitated in a Perkin-Elmer plate reader (Envision) and integral time was setted to be 2 second. The following data were achieved after recording and analyzing the data.
Background: Replicon systems follow genome replication, usually without infectious particles.

As usually defined, the pEC50 is the EC50 on a negative log10 scale, so that one unit is a factor of ten. For the compound `CC[C@@H]1C[C@]1(NC(=O)[C@@H]1C[C@@H]2CN1C(=O)[C@H](C(C)(C)C)NC(=O)[C@@H](NC(=O)OC(C)(C)C)COC/C=C/c1cccc3c1CN(C3)C(=O)O2)C(=O)NS(=O)(=O)C1CC1` [Compound IIa-15, tert-butyl N-[(1R,12E,17S,20S,23S)-20-tert-butyl-23-{[(1R,2R)-1-[(cyclopropanesulfonyl)carbamoyl]-2-ethylcyclopropyl]carbamoyl}-3,18,21-trioxo-2,15-dioxa-4,19,22-triazatetracyclo[20.2.1.1^4,7.0^6,11]hexacosa-6,8,10,12-tetraen-17-yl]carbamate], the pEC50 is over 8.00.
With `C=C[C@@H]1C[C@]1(NC(=O)[C@@H]1C[C@@H]2CN1C(=O)[C@H](C(C)(C)C)NC(=O)[C@@H](NC(=O)OC(C)(C)C)CCOC/C=C/c1cccc3c1CN(C3)C(=O)O2)C(=O)NS(=O)(=O)C1CC1` [Compound IIa-20] the figure was over 8.00; with `C=C[C@@H]1C[C@]1(NC(=O)[C@@H]1C[C@@H]2CN1C(=O)[C@H](C1CCCCC1)NC(=O)[C@@H](NC(=O)OC(C)(C)C)COCCCc1cccc3c1CN(C3)C(=O)O2)C(=O)NS(=O)(=O)C1CC1` [Compound IIa-17, tert-butyl N-[(1R,17S,20S,23S)-20-cyclohexyl-23-{[(1R,2S)-1-[(cyclopropanesulfonyl)carbamoyl]-2-ethenylcyclopropyl]carbamoyl}-3,18,21-trioxo-2,15-dioxa-4,19,22-triazatetracyclo[20.2.1.1^4,7.0^6,11]hexacosa-6,8,10-trien-17-yl]carbamate], over 8.00.
Turning to `CC[C@@H]1C[C@]1(NC(=O)[C@@H]1C[C@@H]2CN1C(=O)[C@H](C1CCCCC1)NC(=O)[C@@H](NC(=O)OC(C)(C)C)COC/C=C/c1cccc3c1CN(C3)C(=O)O2)C(=O)NS(=O)(=O)C1CC1` [Compound IIa-19, tert-butyl N-[(1R,12E,17S,20S,23S)-20-cyclohexyl-23-{[(1R,2R)-1-[(cyclopropanesulfonyl)carbamoyl]-2-ethylcyclopropyl]carbamoyl}-3,18,21-trioxo-2,15-dioxa-4,19,22-triazatetracyclo[20.2.1.1^4,7.0^6,11]hexacosa-6,8,10,12-tetraen-17-yl]carbamate], the negative logarithm of the EC50 (pEC50) is over 8.00.
As to `C=C[C@@H]1C[C@]1(NC(=O)[C@@H]1C[C@@H]2CN1C(=O)[C@H](C(C)(C)C)NC(=O)[C@@H](NC(=O)c1cnccn1)COC/C=C/c1cccc3c1CN(C3)C(=O)O2)C(=O)NS(=O)(=O)C1CC1` [Compound IIa-5, (1R,12E,17S,20S,23S)-20-tert-butyl-23-N-[(1R,2S)-1-[(cyclopropanesulfonyl)carbamoyl]-2-ethenylcyclopropyl]-3,18,21-trioxo-17-C-pyrazine-2-2,15-dioxa-4,19,22-triazatetracyclo[20.2.1.1^4,7.0^6,11]hexacosa-6,8,10,12-tetraene-17,23-diamido], the pEC50 is 6.30 to 7.30.
With `C=C[C@@H]1C[C@]1(NC(=O)[C@@H]1C[C@@H]2CN1C(=O)[C@H](C1CCCCC1)NC(=O)[C@@H](NC(=O)OC(C)(C)C)COCCCc1cc3c(nccc3cc1OC)O2)C(=O)NS(=O)(=O)C1CC1` [Compound IIb-4, tert-butyl N-[(3R,5S,8S,11S)-8-cyclohexyl-5-{[(1R,2S)-1-[(cyclopropanesulfonyl)carbamoyl]-2-ethenylcyclopropyl]carbamoyl}-18-methoxy-7,10-dioxo-2,13-dioxa-6,9,23-triazatetracyclo[15.6.2.1^3,6.0^20,24]hexacosa-1(23),17(25),18,20(24),21-pentaen-11-yl]carbamate] the figure was over 8.00.
On to `C=C[C@@H]1C[C@]1(NC(=O)[C@@H]1C[C@@H]2CN1C(=O)[C@H](C(C)(C)C)NC(=O)[C@H](NC(=O)OC(C)(C)C)COC/C=C/c1cccc3c1CN(C3)C(=O)O2)C(=O)NS(=O)(=O)C1CC1` [Compound IIa-3, tert-butyl N-[(1R,12E,17R,20S,23S)-20-tert-butyl-23-{[(1R,2S)-1-[(cyclopropanesulfonyl)carbamoyl]-2-ethenylcyclopropyl]carbamoyl}-3,18,21-trioxo-2,15-dioxa-4,19,22-triazatetracyclo[20.2.1.1^4,7.0^6,11]hexacosa-6,8,10,12-tetraen-17-yl]carbamate], for which the pEC50 is 6.30 to 7.30.
`C=C[C@@H]1C[C@]1(NC(=O)[C@@H]1C[C@@H]2CN1C(=O)[C@H](C(C)(C)C)NC(=O)[C@@H](NC(=O)OC(C)(C)C)CSC/C=C/c1cccc3c1CN(C3)C(=O)O2)C(=O)NS(=O)(=O)C1CC1` [Compound IIa-21, tert-butyl N-[(1R,12E,17R,20S,23S)-20-tert-butyl-23-{[(1R,2S)-1-[(cyclopropanesulfonyl)carbamoyl]-2-ethenylcyclopropyl]carbamoyl}-3,18,21-trioxo-2-oxa-15-thia-4,19,22-triazatetracyclo[20.2.1.1^4,7.0^6,11]hexacosa-6,8,10,12-tetraen-17-yl]carbamate]: the negative-log EC50 (pEC50) is 7.30 to 8.00.
With `C=C[C@@H]1C[C@]1(NC(=O)[C@@H]1C[C@@H]2CN1C(=O)[C@H](C(C)(C)C)NC(=O)[C@@H](NC(=O)OCc1ccccc1)COC/C=C/c1cccc3c1CN(C3)C(=O)O2)C(=O)NS(=O)(=O)C1CC1` [Compound IIa-10, benzyl N-[(1R,12E,17S,20S,23S)-20-tert-butyl-23-{[(1R,2S)-1-[(cyclopropanesulfonyl)carbamoyl]-2-ethenylcyclopropyl]carbamoyl}-3,18,21-trioxo-2,15-dioxa-4,19,22-triazatetracyclo[20.2.1.1^4,7.0^6,11]hexacosa-6,8,10,12-tetraen-17-yl]carbamate] the figure was over 8.00; with `C=C[C@@H]1C[C@]1(NC(=O)[C@@H]1C[C@@H]2CN1C(=O)[C@H](C(C)(C)C)NC(=O)[C@@H](NC(=O)OC(C)(C)C)COCCCc1cc3c(nccc3cc1OC)O2)C(=O)NS(=O)(=O)C1CC1` [Compound IIb-2, tert-butyl N-[(3R,5S,8S,11S)-8-tert-butyl-5-{[(1R,2S)-1-[(cyclopropanesulfonyl)carbamoyl]-2-ethenylcyclopropyl]carbamoyl}-18-methoxy-7,10-dioxo-2,13-dioxa-6,9,23-triazatetracyclo[15.6.2.1^3,6.0^20,24]hexacosa-1(23),17(25),18,20(24),21-pentaen-11-yl]carbamate], over 8.00; with `CCC1C[C@]1(NC(=O)[C@@H]1C[C@@H]2CN1C(=O)[C@H](C1CCCCC1)NC(=O)[C@@H](NC(=O)OC(C)(C)C)COCCCc1cc3c(nccc3cc1OC)O2)C(=O)NS(=O)(=O)C1CC1` (stereo in doubt) [Compound IIb-6, tert-butyl N-[(3R,5S,8S,11S)-8-cyclohexyl-5-{[(1R,2S)-1-[(cyclopropanesulfonyl)carbamoyl]-2-ethylcyclopropyl]carbamoyl}-18-methoxy-7,10-dioxo-2,13-dioxa-6,9,23-triazatetracyclo[15.6.2.1^3,6.0^20,24]hexacosa-1(23),17(25),18,20(24),21-pentaen-11-yl]carbamate], 6.30 to 7.30.
With `C=C[C@@H]1C[C@]1(NC(=O)[C@@H]1C[C@@H]2CN1C(=O)[C@H](C(C)(C)C)NC(=O)[C@@H](NS(C)(=O)=O)COC/C=C/c1cccc3c1CN(C3)C(=O)O2)C(=O)NS(=O)(=O)C1CC1` [Compound IIa-8, (1R,12E,17S,20S,23S)-20-tert-butyl-N-[(1R,2S)-1-[(cyclopropanesulfonyl)carbamoyl]-2-ethenylcyclopropyl]-17-methanesulfonamido-3,18,21-trioxo-2,15-dioxa-4,19,22-triazatetracyclo[20.2.1.1^4,7.0^6,11]hexacosa-6,8,10,12-tetraene-23-carboxamide] the figure was 7.30 to 8.00.
